Patent US4000196A, “1,1,3-Trisubstituted hydroxyguanidines” (E. I. Du Pont de Nemours and Company, priority 1974, dated 1976)

Columns and labels:
[1] = Chelation of metal ions in aqueous solutions; format: physicochemical
Description: (§1) The 1,1,3-trisubstituted hydroxyguanidines of the invention chelate metal ions in aqueous solutions, and the chelate complexes can then be extracted by a solvent such as 1-butanol. The following is an example.
(§2) Aqueous solutions of cobaltous chloride and cupric acetate were prepared by dissolving 0.5 g in separate 5 ml portions of water. One ml of each solution was mixed with 1 ml of an aqueous methanol solution of 1,3-dimethyl-1-benzyl-2-hydroxyguanidine made by dissolving 0.2 g of the hydroxyguanidine in 5 ml methanol and 5 ml water. The addition was followed by an immediate color change.

[2] = system: tetrabenazine-induced ptosis in mice; assay: Prevention of tetrabenazine-induced sedation and depression in mice (relief of ptosis); format: in vivo, Carworth CF1 S female mice; conditions: Mus musculus, 1 h; oral; 5, 25 and 125 mg/kg; tetrabenazine 32 mg/kg i.p. 30 min later; read 30 min after tetrabenazine; groups of 10 female mice; read-out: ptosis ED50, i.e., the dose which blocked ptosis in 50% of the mice
Description: This mouse test is predictive of human antidepressant response (Everett, G.M., "The Dopa Response Potentiation Test and Its Use In Screening for Antidepressant Drugs", pp. 164-167 in "Antidepressant Drugs", Proceeding of the First International Symposium, S. Garattini and M. N. G. Dukes, eds., 1967).
Groups of 10 Carworth CF1 S female mice, 18-21 g each, were fasted 1.5 hours and were intubated with a hydroxyguanidine as antagonist to tetrabenazine at oral doses of 5, 25 and 125 mg/kg in 0.20 ml of 1% methyl cellulose (Methocel). Thirty minutes later the mice were challenged with tetrabenazine, 32 mg/kg intraperitoneally (dissolved in 0.20 ml of 0.05M KCl at pH 2.0). One hour after the hydroxyguanidine compound (30 minutes after tetrabenazine) the mice were examined for signs of exploratory activity and ptosis (eye-lid closure). Normal exploratory activity (relief from sedation) was recorded when a mouse lifted by the tail from a group of 10 in a testing box and placed on a stainless steel testing box lid (12.5 inches × 8 inches with 0.33 inch mesh) either turned its head horizontally 30° or moved to the edge of the screen within 10 seconds after being placed on the screen. Relief from ptosis was recorded when exactly 2 seconds after placing the mouse facing the observer, lid closure was less than 50% in both eyes. […]

[3] = Complex formation with titanium (tetraisopropyl titanate); format: physicochemical; conditions: methanol solution of tetraisopropyl titanate
[4] = Chelation of copper ions (cupric acetate) in aqueous solution; format: physicochemical; conditions: cupric acetate in water mixed with aqueous methanol solution of hydroxyguanidine
Description: as §1, §2

[5] = Chelation of cobalt ions (cobaltous chloride) in aqueous solution; format: physicochemical; conditions: cobaltous chloride in water mixed with aqueous methanol solution of hydroxyguanidine
Description: as §1, §2

Q: Which “chelating of metal ions” value ([1]; aqueous solutions) does the source give for `CNC(=NO)N(C)c1ccccc1` [Example 2, 1-Phenyl-1,3-dimethyl-2-hydroxyguanidine] here?
A: Chelating also occured

Q: Which ED50 [2] does the source give for `CCNC(=NO)N(C)c1ccccc1` [Example 3, 1-Phenyl-1-methyl-3-ethyl-2-hydroxyguanidine] here?
A: 2.7 mg/kg

Q: What does the source list for `CNC(=NO)N(C)Cc1ccccc1` [Example 4, 1-Benzyl-1,3-dimethyl-2-hydroxyguanidine]?
A: complex of titanium with the hydroxyguanidine [3]: a bright yellow complex of titanium with the hydroxyguanidine was formed; extraction of the metal ion from water into 1-butanol ([1]; cobalt and copper solutions shaken with 2-3 ml of 1-butanol): colored organic layers, indicative of extraction of the metal ion from the water; immediate color change of copper solution [4]: from blue to green; immediate color change of cobalt solution [5]: from red to pink

Q: With `CCNC(=NO)N(C)Cc1ccccc1` [Example 5, 1-Benzyl-1-methyl-3-ethyl-2-hydroxyguanidine] as the compound, how does the ED50 [2] read?
A: 19 mg/kg
